Reference: the NIST ThermoML archive (doi:10.1016/j.jct.2017.08.035)
± gives the expanded uncertainty stated by the source.

Conditions: for surface tension liquid-gas: Maximal bubble pressure; for mass density: 100 kPa, Liquid, Vibrating tube method

SMILES	surface tension liquid-gas (298.15 K) [mN/m]	mass density (298.15 K) [kg/m3]	surface tension liquid-gas (303.15 K) [mN/m]	mass density (303.15 K) [kg/m3]	surface tension liquid-gas (308.15 K) [mN/m]	mass density (308.15 K) [kg/m3]	surface tension liquid-gas (313.15 K) [mN/m]	mass density (313.15 K) [kg/m3]	surface tension liquid-gas (318.15 K) [mN/m]	mass density (318.15 K) [kg/m3]	surface tension liquid-gas (323.15 K) [mN/m]	mass density (323.15 K) [kg/m3]	surface tension liquid-gas (328.15 K) [mN/m]	mass density (328.15 K) [kg/m3]	surface tension liquid-gas (333.15 K) [mN/m]	mass density (333.15 K) [kg/m3]	surface tension liquid-gas (338.15 K) [mN/m]	mass density (338.15 K) [kg/m3]
CC(=O)[O-].CCn1cc[n+](CCOC)c1 [1-ethyl-3-(2-methoxyethyl)imidazolium acetate]	46 ± 0.5	1192.38 ± 4.6	45.7 ± 0.5	1189.07 ± 4.6	45.4 ± 0.5	1185.74 ± 4.6	45.1 ± 0.5	1182.43 ± 4.6	44.8 ± 0.5	1179.14 ± 4.6	44.5 ± 0.5	1175.86 ± 4.6	44.3 ± 0.5	1172.58 ± 4.6	44.1 ± 0.5	1169.35 ± 4.6	43.9 ± 0.5	1166.13 ± 4.6
CCn1cc[n+](CCOC)c1.O=S(=O)([N-]S(=O)(=O)C(F)(F)F)C(F)(F)F	36 ± 0.4	1463.13 ± 2.4	35.8 ± 0.4	1458.11 ± 2.4	35.5 ± 0.4	1453.11 ± 2.4	35.2 ± 0.4	1448.12 ± 2.4	35 ± 0.4	1443.16 ± 2.4	34.7 ± 0.4	1438.21 ± 2.4	34.4 ± 0.4	1433.29 ± 2.4	34.1 ± 0.4	1428.39 ± 2.4	33.9 ± 0.4	1423.51 ± 2.4
CCn1cc[n+](CCOC)c1.N#C[N-]C#N [1-ethyl-3-(2-methoxyethyl)imidazolium dicyanamide]	44.6 ± 0.5	1113.6 ± 4.6	44.3 ± 0.5	1110.21 ± 4.6	44 ± 0.5	1106.83 ± 4.6	43.7 ± 0.5	1103.48 ± 4.6	43.4 ± 0.5	1100.15 ± 4.6	43.1 ± 0.5	1096.84 ± 4.6	42.9 ± 0.5	1093.53 ± 4.6	42.7 ± 0.4	1090.26 ± 4.6	42.4 ± 0.4	1087 ± 4.6
CCn1cc[n+](CCOC)c1.O=S(=O)([O-])C(F)(F)F	38 ± 0.4	1355.89 ± 4.6	37.7 ± 0.4	1351.61 ± 4.6	37.4 ± 0.4	1347.35 ± 4.6	37.1 ± 0.4	1343.11 ± 4.6	36.9 ± 0.4	1338.88 ± 4.6	36.5 ± 0.4	1334.67 ± 4.6	36.3 ± 0.4	1330.48 ± 4.6	36.1 ± 0.4	1326.3 ± 4.6	35.8 ± 0.4	1322.12 ± 4.6
CCn1cc[n+](CCOC)c1.N#C[S-] [1-ethyl-3-(2-methoxyethyl)imidazolium thiocyanate]	49 ± 0.5	1122.11 ± 4.6	48.7 ± 0.5	1118.89 ± 4.6	48.4 ± 0.5	1115.69 ± 4.6	48 ± 0.5	1112.52 ± 4.6	47.7 ± 0.5	1109.37 ± 4.6	47.5 ± 0.5	1106.23 ± 4.6	47.3 ± 0.5	1103.12 ± 4.6	47.1 ± 0.5	1100.01 ± 4.6	46.7 ± 0.5	1096.92 ± 4.6
